In ChEMBL document CHEMBL4346728, “Discovery and development of DNA polymerase IIIC inhibitors to treat Gram-positive infections” (Bioorg Med Chem, 2019):
≈ marks a conversion by molar mass, not a printed value. Each block holds one compound with its values, some of them ahead of it. Calls of active or inactive are those of the source. The calls are words filed in the database; no cut-off is given here.

Legend:
Staphylococcus aureus [1] = assay: Antibacterial activity against methicillin-resistant Staphylococcus aureus by CLSI guideline based method; format: functional
Streptococcus pyogenes = assay: Antibacterial activity against macrolide-resistant Streptococcus pyogenes by CLSI guideline based method; format: functional
Enterococcus faecium [2] = assay: Antibacterial activity against vancomycin-resistant Enterococcus faecium by CLSI guideline based method; format: functional
[3] = Inhibition of Staphylococcus aureus R27 DNA polymerase 3C using activated calf thymus DNA as substrate in presence of dATP/dGTP/dCTP/[3H]dTTP measured for 20 mins
Enterococcus faecalis [4] = assay: Antibacterial activity against Enterococcus faecalis ICB 27159 incubated for 18 hrs under microaerophilic condition by broth microdilution method; format: functional; conditions: ICB 27159, 18 h
Staphylococcus aureus [5] = assay: Antibacterial activity against Staphylococcus aureus 133 incubated for 18 hrs by broth microdilution method; format: functional; conditions: Staphylococcus aureus, 133, 18 h
Enterococcus faecalis [6] = assay: Antibacterial activity against Enterococcus faecalis ICB 27159 infected in CFW1 mouse assessed as mouse survival at 5 mg/kg, iv administered at 30 mins post infection and measured over 5 days; format: functional, organism-based
[7] = Inhibition of bacterial DNA polymerase 3C using dATP/dCTP/dTTP/dGTP as substrate in presence of activated calf thymus DNA incubated for 15 mins and measured for 1 min by luciferase based enzymatic assay; parameters: species or system Bacteria
Staphylococcus aureus [8] = assay: Antibacterial activity against Staphylococcus aureus 133 infected in CFW1 mouse, iv administered at 30 mins post infection and measured over 5 days; format: functional; conditions: Staphylococcus aureus, 133, iv
Streptococcus pneumoniae [9] = assay: Antibacterial activity against Streptococcus pneumoniae 1707/4 incubated for 18 hrs under microaerophilic condition by broth microdilution method; format: functional; conditions: 1707/4, 18 h
Clostridioides difficile [10] = assay: Antibacterial activity against Clostridium difficile by CLSI method; format: functional
Staphylococcus aureus [11] = assay: Antibacterial activity against methicillin-resistant Staphylococcus aureus B42876 incubated for 16 to 24 hrs by microplate reader analysis; format: functional
Escherichia coli = assay: Antibacterial activity against Escherichia coli J53 incubated for 16 to 24 hrs by microplate reader analysis; format: functional
Enterococcus faecalis [12] = assay: Antibacterial activity against Enterococcus faecalis ATCC 29212 incubated for 16 to 24 hrs by microplate reader analysis; format: functional
[13] = Inhibition of recombinant Bacillus subtilis DNA polymerase 3C expressed in Escherichia coli using activated calf thymus DNA as substrate after 10 mins in presence of dATP/dCTP/[3H]dTTP/dATP by liquid scintillation counting analysis
Staphylococcus aureus [14] = assay: Antibacterial activity against Staphylococcus aureus ATCC 25923 incubated for 16 to 24 hrs by microplate reader analysis; format: functional
Enterococcus faecium [15] = assay: Antibacterial activity against Enterococcus faecium incubated for 16 to 24 hrs by microplate reader analysis; format: functional
Bacillus subtilis [16] = assay: Antibacterial activity against Bacillus subtilis ATCC BD54 incubated for 16 to 24 hrs by microplate reader analysis; format: functional
Enterococcus faecium [17] = assay: Antibacterial activity against vancomycin-resistant Enterococcus faecium incubated for 16 to 24 hrs by microplate reader analysis; format: functional
[18] = Inhibition of Bacillus subtilis DNA polymerase 3
Clostridioides difficile [19] = assay: Antibacterial activity against metronidazole-resistant Clostridium difficile by CLSI method; format: functional
Clostridioides difficile [20] = assay: In vivo inhibition of Clostridium difficile ATCC 43255 infected in golden syrian hamster assessed as reduction in recurrence rate at 50 mg/kg, po bid for 7 days relative to control; format: functional; conditions: 168 h
Clostridioides difficile [21] = assay: Antibacterial activity against vancomycin-resistant Clostridium difficile by CLSI method; format: functional
Bacillus subtilis [22] = assay: Antibacterial activity against Bacillus subtilis F2 incubated for overnight; format: functional
[23] = Inhibition of recombinant Staphylococcus aureus DNA polymerase 3C expressed in Escherichia coli BL21 cells assessed as assessed as reduction in [3H]dTTP incorporation in to activated calf thymus DNA using calf thymus DNA as substrate incubated for 30 mins by scintillation counting analysis
Enterococcus faecium [24] = assay: Antibacterial activity against Enterococcus faecium RLA1 incubated for overnight; format: functional
Streptococcus pneumoniae [25] = assay: Antibacterial activity against Streptococcus pneumoniae MCL5350 incubated for overnight; format: functional
Staphylococcus aureus [26] = assay: Antibacterial activity against Staphylococcus aureus MB2865 incubated for overnight; format: functional
Bacillus subtilis [27] = assay: Antibacterial activity against Bacillus subtilis ATCC BD54 incubated for 16 to 18 hrs by microplate reader analysis; format: functional

Structure (SMILES): COCCS(=O)(=O)Cc1csc(NC(=O)NCc2ccc(Cl)c(Cl)c2)n1
MIC (Staphylococcus aureus [1]): 0.5 to 4 µg/mL (≈ 1.14 to 9.12 µM)
MIC (Streptococcus pyogenes): 0.5 to 4 µg/mL (≈ 1.14 to 9.12 µM)
MIC (Enterococcus faecium [2]): 0.5 to 4 µg/mL (≈ 1.14 to 9.12 µM)

IC50 [3]: 10000 nM
Structure (SMILES): CCc1cc(Nc2cc(Oc3ccc(Br)cc3)nc(N)n2)ccc1C

Structure (SMILES): CS(=O)(=O)CCOCc1csc(NC(=O)NCc2ccc(Cl)c(Cl)c2)n1
MIC90 (Staphylococcus aureus [1]): 1 to 8 µg/mL (≈ 2.28 to 18.2 µM)
MIC90 (Streptococcus pyogenes): 1 to 8 µg/mL (≈ 2.28 to 18.2 µM)
MIC90 (Enterococcus faecium [2]): 1 to 8 µg/mL (≈ 2.28 to 18.2 µM)

MIC (Enterococcus faecalis [4]): 8 µg/mL (≈ 18.3 µM)
MIC (Staphylococcus aureus [5]): 16 µg/mL (≈ 36.6 µM)
IC50 [7]: 100 nM
MIC (Streptococcus pneumoniae [9]): 8 µg/mL (≈ 18.3 µM)
Structure (SMILES): CCc1cc(Nc2cc(=O)n(CC3CCN(C(=O)c4ccno4)CC3)c(=O)[nH]2)ccc1C
Activity (Enterococcus faecalis [6]): Active
ED50 (Staphylococcus aureus [8]): 10 mg/kg

Structure (SMILES): Cc1ncc([N+](=O)[O-])n1CCO [METRONIDAZOLE]
MIC50 (Clostridioides difficile [10]): 1 µg/mL (≈ 5.84 µM)
MIC90 (Clostridioides difficile [10]): 4 µg/mL (≈ 23.4 µM)

Structure (SMILES): CN[C@H](CC(C)C)C(=O)N[C@H]1C(=O)N[C@@H](CC(N)=O)C(=O)N[C@H]2C(=O)N[C@H]3C(=O)N[C@H](C(=O)N[C@H](C(=O)O)c4cc(O)cc(O)c4-c4cc3ccc4O)[C@H](O)c3ccc(c(Cl)c3)Oc3cc2cc(c3O[C@@H]2O[C@H](CO)[C@@H](O)[C@H](O)[C@H]2O[C@H]2C[C@](C)(N)[C@H](O)[C@H](C)O2)Oc2ccc(cc2Cl)[C@H]1O [VANCOMYCIN]
MIC50 (Clostridioides difficile [10]): 1 µg/mL (≈ 0.69 µM)
MIC90 (Clostridioides difficile [10]): 4 µg/mL (≈ 2.76 µM)

Structure (SMILES): CCc1cc(Nc2cc(=O)n(CCCCN3CCCCC3)c(=O)[nH]2)ccc1C
MIC (Staphylococcus aureus [11]): 40 µg/mL (≈ 104 µM)
MIC (Escherichia coli): > 20 µg/mL
MIC (Enterococcus faecalis [12]): 20 µg/mL (≈ 52 µM)
IC50 [13]: 28 nM
MIC (Staphylococcus aureus [14]): 20 µg/mL (≈ 52 µM)
MIC (Enterococcus faecium [15]): 20 µg/mL (≈ 52 µM)
MIC (Bacillus subtilis [16]): 10 µg/mL (≈ 26 µM)
MIC (Enterococcus faecium [17]): 10 µg/mL (≈ 26 µM)

IC50 [18]: 1000 nM
Structure (SMILES): CCc1cc(Nc2cc(O)nc(O)n2)ccc1C

Structure (SMILES): O=c1[nH]c(NCc2ccc(Cl)c(Cl)c2)nc2ncn(CCN3CCOCC3)c12 [IBEZAPOLSTAT]
MIC50 (Clostridioides difficile [19]): 2 µg/mL (≈ 4.72 µM)
MIC90 (Clostridioides difficile [19]): 4 µg/mL (≈ 9.45 µM)
MIC50 (Clostridioides difficile [10]): 2 µg/mL (≈ 4.72 µM)
MIC90 (Clostridioides difficile [10]): 4 µg/mL (≈ 9.45 µM)
inhibition in vivo at 50 mg/kg (Clostridioides difficile [20]): 40%
MIC50 (Clostridioides difficile [21]): 2 µg/mL (≈ 4.72 µM)
MIC90 (Clostridioides difficile [21]): 4 µg/mL (≈ 9.45 µM)

Structure (SMILES): Cc1noc(C)c1C(=O)N(C)Cc1csc(NC(=O)NCc2cccc(F)c2)n1
MIC90 (Staphylococcus aureus [1]): 1 to 4 µg/mL (≈ 2.4 to 9.58 µM)
MIC90 (Streptococcus pyogenes): 1 to 4 µg/mL (≈ 2.4 to 9.58 µM)
MIC90 (Enterococcus faecium [2]): 1 to 4 µg/mL (≈ 2.4 to 9.58 µM)

Structure (SMILES): CCc1cc(Nc2cc(=O)n(CCCCO)c(=O)[nH]2)ccc1C
MIC (Staphylococcus aureus [11]): 5 µg/mL (≈ 15.8 µM)
MIC (Escherichia coli): > 20 µg/mL
MIC (Enterococcus faecalis [12]): 5 µg/mL (≈ 15.8 µM)
IC50 [13]: 63 nM
MIC (Staphylococcus aureus [14]): 5 µg/mL (≈ 15.8 µM)
MIC (Enterococcus faecium [15]): 2.5 µg/mL (≈ 7.88 µM)
MIC (Bacillus subtilis [16]): < 1.25 µg/mL
MIC (Enterococcus faecium [17]): 2.5 µg/mL (≈ 7.88 µM)

MIC (Bacillus subtilis [22]): ≥ 9 µg/mL
IC50 [23]: 71000 nM
MIC (Enterococcus faecium [24]): ≥ 9 µg/mL
MIC (Streptococcus pneumoniae [25]): ≥ 9 µg/mL
MIC (Staphylococcus aureus [26]): ≥ 9 µg/mL
Structure (SMILES): CCc1cc(Nc2nc(O)c3c[nH]nc3n2)ccc1C

MIC (Bacillus subtilis [27]): 0.625 µg/mL (≈ 1.52 µM)
IC50 [13]: 200 nM
Structure (SMILES): COc1ccc(-c2cc(C(=O)N/N=C/c3cc(OC)c(OC)c(OC)c3)[nH]n2)cc1
